Source: publication PMC5035790 (Annals of Oncology, 2016)

Tests used:
[1] = Blood pressure monitoring after infusion; type: in vivo, human
[2] = tested on: p110γ; settings: read-out: IC50 p110γ; cited from earlier work

## COc1c(OCCCN2CCOCC2)ccc2c1N=C(NC(=O)c1cnc(N)nc1)N1CCN=C21 [copanlisib, Copanlisib]
[1]; in vivo
  time of peak of post-infusion increase in blood pressure: 1 to 2 h
[1]; post-infusion
  time to resolution of post-infusion increase in blood pressure: ≤ 24 h
[2]
  IC50: 6.4 nM
